According to PMC6874530, “Structural analysis identifies an escape route from the adverse lipogenic effects of liver X receptor ligands” (Communications Biology, 2019):
Where “and” joins values, the source holds several entries; their conditions need not be identical. Equal entries are not always repeated. Where two headings read alike, the source gives them in different places.

Legend:
plasma triglycerides = assay: plasma TG induction in C57BL/6 mice vs plasma compound concentration (log-linear model); type: in vivo, mouse; conditions: for TG induction in plasma m (scaling factor) / TG induction in plasma C2, drug concentration corresponding to a twofold increase in TG levels: (% RSE); for TG induction in plasma Attributed class: mouse, in vivo
Method: Male C57BL/6JOlaHsd mice were retrieved from Harlan Laboratories (Horst, The Netherlands) around 7 weeks of age. […] Mice were given ad libitum access to water and standard rodent chow during the studies.
Compounds were given daily by oral gavage, 5 ml kg^−1, at doses ranging from 0.1 to 100 μmol kg^−1 of body weight for 4 days. Animals were terminated 3 h after the last dose.
At termination, the whole-blood volume was drawn from isoflurane-anesthetized mice via an incision in the carotid artery into EDTA blood tubes (S-Monovette®, EDTA KE/1.3 mL, Sarstedt, Nümbrecht, Germany or BD Microtainers®, Benton, Dickinson and Company, Franklin Lakes, New Jersey, USA). Blood samples were placed on ice and centrifuged within an hour (15 min, 2500 × g, 4 °C or 5 min, 16000 × g, 4 °C). The plasma was then dispensed in separate tubes and kept at −80 °C for later analysis of compound concentration and TG levels. For the analysis of intestinal Abca1 transcript levels, a 3–5-mm long segment of the duodenum was excised and cleared from any gut contents. Tissues were instantly snap frozen in liquid nitrogen and stored at −80 °C.
Plasma triglyceride levels were analyzed by using the Triglycerides/Glycerol Blanked reagent kit (Roche Diagnostics GMBH, Mannheim, Germany). Samples were measured on an ABX Pentra 400 instrument (Horiba Medical, Irvine, California, USA) or Cobas Mira plus instrument (Roche Diagnostics Corporation, Indianapolis, USA). […] Absorbance was measured by using a Tecan Infinite M200 plate reader (Tecan Austria GmbH, Salzburg, Austria).
About 25 µL of plasma was precipitated with 150 µL of cold acetonitrile containing 0.2% formic acid. […] Sample analysis was performed by using a reversed-phase high-pressure liquid chromatography system coupled to a Quattro Ultima triple-quadrupole mass spectrometer (Waters, UK). A rapid 2-min 4–90% (vol/vol) acetonitrile (containing 0.2% formic acid) gradient was used for chromatographic separation.
To rank the compounds, the drug concentration (C2) needed to generate a twofold increase in plasma TG was estimated by rearranging Eq. (2):3 C2=exp^2fold−BL−1/m^1/γ

LXRα LBD [1] = target: T1, LXRα LBD (Homo sapiens, UniProt Q13133); assay: biochemical
T1 sequence (Q13133 200-447): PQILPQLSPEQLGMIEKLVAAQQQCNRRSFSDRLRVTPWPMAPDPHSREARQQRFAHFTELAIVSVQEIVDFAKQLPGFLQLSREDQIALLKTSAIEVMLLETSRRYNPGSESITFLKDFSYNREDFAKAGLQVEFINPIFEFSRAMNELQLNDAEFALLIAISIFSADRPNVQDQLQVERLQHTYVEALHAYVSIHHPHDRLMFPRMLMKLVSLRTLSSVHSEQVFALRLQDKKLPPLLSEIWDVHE
Description: The compounds were run in triplicate (binding assay) or in quadruplicate (transactivation assay). Standard deviations are indicated for individual experiments run more than once.

LXRβ LBD = target: T2, LXRβ LBD (Homo sapiens, UniProt P55055); assay: differential HDX-MS of LXRβ LBD (apo vs ligand-bound); set-up: human his-tagged LXRβ LBD (216-461); His tag; made in house; host or cells: Escherichia coli BL21(DE3); conditions: after 30 s of deuterium exchange
T2 sequence (P55055 215-460 limits assumed): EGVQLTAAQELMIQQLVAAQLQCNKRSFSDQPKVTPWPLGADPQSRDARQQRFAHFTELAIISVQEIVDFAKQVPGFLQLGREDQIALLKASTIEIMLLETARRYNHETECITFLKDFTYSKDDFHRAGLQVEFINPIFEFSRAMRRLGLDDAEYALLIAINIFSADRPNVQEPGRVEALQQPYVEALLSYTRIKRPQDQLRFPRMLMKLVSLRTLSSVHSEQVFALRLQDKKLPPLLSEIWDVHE
Method: (§1) Prior to the deuterium incorporation experiments, 10 µM apo LXR was incubated with 10× excess of ligand or equal volume of DMSO for 30 min at room temperature. In the experiments with cofactors, 15× excess of the SRC1 coactivator peptide and the NCOR1 corepressor peptide were added to the ligand-bound or apo proteins, respectively, and incubated for 30 min at room temperature. […] A fully deuterated sample was generated by incubating protein with 4 M guanidine-HCl in D2O for 30 min at 45 °C. Exchange reactions were performed with a CTC PAL sample handling robot (LEAP Technologies). Labeling times were 30, 60, 180, 600, and 1800 s in the kinetics experiments. Differential HDX of a complete compound selection was measured after 30 and 600 s of labeling time points. Reactions were conducted by incubating 4 µl of LXR with 50 µl of D2O buffer (containing 25 mM Tris-HCl (pD 7.6), 50 mM NaCl, 10% glycerol, and 1 mM TCEP). The exchange reaction was stopped by the addition of 50 µl of quench solution (3 M urea, 0.1% TFA) followed by immediate injection into a Enzymate BEH Pepsin 2.1 × 30 mm Column (Waters, UK) for protein digestion (2 min at 24 °C). Peptic digest was further injected on a Waters nanoACQUITY UPLC System where peptides were first desalted by trapping for 3 min on a VanGuard Pre-Column Acquity UPLC BEH C18 (1.7 μm; 2.1 × 5 mm), and then eluted over a 6-min 5–40% (vol/vol) acetonitrile (containing 0.1% formic acid) gradient into a Waters Synapt G2-Si mass spectrometer. Peptide separation was conducted at 0.1 °C. All exchange reactions were performed in triplicates.
(§2) Peptides from three samples of non-deuterated LXR were identified by using the ProteinLynx Global Server (PLGS Waters, UK). Peptides with an intensity of over 5000, a mass error < 5 ppm, and present in at least two of the three data acquisitions were pooled and imported into the DynamX data analysis software (Waters, UK). After a first round of automated spectral processing by using DynamX, each peptide was inspected manually for suitability for further analysis.
(§3) For pairwise comparison, MEMHDX software was used to identify statistically significant changes of deuterium uptake. For all peptides, a value of relative exchange per amino acid was corrected to back exchange. The mean deuteration level per amino acid was calculated by using Matlab (Mathworks)[69] and subsequently mapped onto the crystal structures with PyMOL (Schrodinger LLC). For structural representation, loop modeling with MOE (Chemical Computing Group Inc.) was applied on 2ACL.pdb file for LXRα LBD, and 1PQC.pdb for LXRβ LBD.

LXRα LBD [2] = target: T1, LXRα LBD; assay: differential HDX-MS of LXRα LBD (apo vs ligand-bound); set-up: Human his-tagged LXRα LBD (200-447); His tag; made in house; host or cells: Escherichia coli BL21(DE3); conditions: for stabilization of LXRα H12: HDX-MS; for protection of LXRα H3 from deuterium exchange: after 600 s of deuterium exchange
Method: as §1, §2, §3

[3] = Receptor-binding affinity pKi LXRα, value (SD, n independent experiments)

Structure (SMILES)	TG induction in plasma m (scaling factor) (plasma triglycerides)	TG induction in plasma Attributed class (plasma triglycerides)	TG induction in plasma C2, drug concentration corresponding to a twofold increase in TG levels (plasma triglycerides)	Ki (LXRα LBD [1]; [3])	protection of LXRβ H11–H12 from deuterium exchange (LXRβ LBD)	stabilization of LXRα H12 (LXRα LBD [2])	protection of LXRα H3 from deuterium exchange (LXRα LBD [2])	Ki (LXRα LBD [1]; binding affinity to LXRα)	TG class (plasma triglycerides)	trend in plasma TG levels (plasma triglycerides; within the explored concentration range)	Ki (LXRα LBD [1])
CN(C)C(=O)c1cccc(CCCCNC2=C(c3ccccc3)S(=O)(=O)N(C(C)(C)C)C2=O)c1 [AZ1]	3.88 (30)	Lipogenic	0.214 (58) μM	91.2 nM	–	–	–	–	–	–	–
CC(CCCc1cccc(S(N)(=O)=O)n1)NC1=C(c2ccccc2)S(=O)(=O)N(C(C)C)C1=O (centres unmarked) [AZ2]	9.28 (63)	–	0.041 (120) μM	91.2 nM	–	–	–	–	–	–	–
CC(C)N1C(=O)C(NCCCCc2cccc(S(N)(=O)=O)n2)=C(c2ccccc2)S1(=O)=O [AZ3]	0.897 (20)	–	3.42 (38) μM	501 nM	17-25%	–	–	–	–	–	–
CC(C)(C)N1C(=O)C(NC2CCN(c3ncc(CC(=O)O)cc3Cl)CC2)=C(c2ccccc2)S1(=O)=O [AZ4]	1.47 (28)	–	1.35 (54) μM	355 nM	–	–	–	–	–	–	–
CN(C)C(=O)c1cnc(N2CC[C@@H](CNC3=C(c4ccccc4)S(=O)(=O)N(C(C)(C)C)C3=O)C2)c(Cl)c1 [AZ5]	–	–	–	2140 nM	–	did not stabilize LXRα H12	no effect	–	–	–	–
CC(C)N1C(=O)C(NC2CCN(c3ncc(CC(=O)O)cc3Cl)CC2)=C(c2ccccc2)S1(=O)=O [AZ6]	–	Non-lipogenic	–	1580 nM	17-25%	–	–	–	–	–	–
CC(C)(C)N1C(=O)C(Cc2ccccc2)=C(NC2CCN(c3ncc(CC(=O)O)cc3Cl)CC2)C1=O [AZ7]	–	Non-lipogenic	–	1070 nM	–	–	–	1000 nM	–	–	–
O=C1C(Cc2ccccc2)=C(NCCCCc2ccccc2)C(=O)N1Cc1ccccc1 [AZ8]	–	Non-lipogenic	–	195 nM	17-25%	–	no effect	–	–	–	–
CC(C)(O)c1cn(-c2ccc(-c3cc(F)c(CO)c(S(C)(=O)=O)c3)cc2F)c(C(C)(C)c2c(Cl)cccc2Cl)n1 [BMS-852927]	0.066 (18)	Non-lipogenic	477 μM and 477 (35) μM	–	–	did not stabilize LXRα H12	60%	–	non-lipogenic	–	–
O=C(O)Cc1ccc(CNC(=O)[C@@H]2Cc3ccccc3N2S(=O)(=O)c2ccc(-c3ccccc3C(F)(F)F)cc2)cc1 [F1, reference compound]	12.1 (38)	Lipogenic	0.025 (72) μM	10.2 nM	–	did not stabilize LXRα H12	–	10 nM	–	–	–
O=C(O)Cc1cccc(OCCCN(Cc2cccc(C(F)(F)F)c2Cl)CC(c2ccccc2)c2ccccc2)c1 [GW3965, reference compound]	0.244 (18)	Non-lipogenic	40.2 μM and 40.2 (33) μM	158 nM	–	–	–	–	non-lipogenic	–	–
Fc1ccc(-c2c3cccc(C(F)(F)F)c3nn2Cc2ccc(F)cc2Cl)cc1 [LXR-623, reference compound]	–	Non-lipogenic	–	–	–	–	no effect	–	non-lipogenic	no trends toward increased TG levels	490 nM
O=S(=O)(c1ccccc1)N(CC(F)(F)F)c1ccc(C(O)(C(F)(F)F)C(F)(F)F)cc1 [T0901317, reference compound]	0.784 (17)	Lipogenic	4.41 (33) μM	–	17-25%	–	–	–	–	–	–
